Laboratory results from PMC4515504 (Evidence-based Complementary and Alternative Medicine : eCAM, 2015).

Test system: T1, alpha-glucosidase (from Bacillus stearothermophilus)
T1 construct: gene maltase
Assay: pNPG hydrolysis, Lineweaver-Burk plot
Format: biochemical, Geobacillus stearothermophilus
Conditions: control without extract; pNPG 0.08-5 mg/mL, 37°C, 20 min; unreliable: Km extrapolated above the tested substrate range
Description: pNPG hydrolysis, Lineweaver-Burk plot on alpha-glucosidase (from Bacillus stearothermophilus)

## O=[N+]([O-])c1ccc(O[C@H]2O[C@H](CO)[C@@H](O)[C@H](O)[C@H]2O)cc1 [p-nitrophenyl glucopyranoside]
  Alpha-glucosidase / K m: 17.39 mg/mL
